This note sets out measurements from PubChem BioAssay (NCI).

Experiment in all cases: growth of human tumour cells (NCI), 48 h
Experiment [1] relates to SN12C renal.
For experiment [2], the system named is UO-31 renal.
For experiment [3], the system named is A498 renal.
In experiment [4] the test system is OVCAR-3 ovarian.
Experiment [5] concerns NCI-H522 lung.
The test system of experiment [6] is EKVX NSCLC.
Experiment [7] relates to CCRF-CEM leukemia.
Experiment [8] deals with SW-620 colon.
For experiment [9], the system named is HCT-15 colon.
Experiment [10] concerns COLO 205 colon.

Where “and” joins values, the source holds several entries; their conditions need not be identical. Equal entries are not always repeated.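 Following 48 hours of exposure in 96-well plates, responses at five concentrations were used to interpolate endpoints linearly. GI50 = concentration required for 50% inhibition of growth. At the TGI there is no net growth.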

With `CCOC(=O)c1[nH]c(Br)c(-c2ccc(Br)cc2)c1Br`, the GI50 is 0.502 µM in experiment [1]; 1.13 µM in experiment [2]; 0.288 µM in [3]; 0.37 µM in experiment [4]; 0.178 µM in experiment [5]; 0.852 µM in [6]. For the same compound, the figures for the GI50 in [7] and in [9] were 0.278 µM and 0.25 µM, respectively. The TGI in [1] was 4.75 µM; in [2], 5.71 µM and 8.57 µM; in experiment [3] it was 5.28 µM and 1.22 µM; in [4], 0.759 µM and 1.61 µM; in experiment [5] it was 3.42 µM and 0.52 µM; in experiment [6], 17.3 µM. Besides, the TGI in [7] is 1.11 µM; in experiment [8], 14 µM; in experiment [9] it was more than 100 µM; in experiment [10] it was 2.54 µM and 1.85 µM.
For the compound `Cc1ccccc1N=Nc1ccc(NC(=O)c2ccnn2C)c(C)c1`, the GI50 in experiment [1] was 97.1 µM; in experiment [2], 11.2 µM; in [3], 13.2 µM; in experiment [4], more than 100 µM; in experiment [5] it was 30 µM; in experiment [6] it was 7.72 µM. Besides, the GI50 in [7] is 43.3 µM; in [8] it was more than 100 µM; in [9] it was 68.4 µM; in [10], more than 100 µM. Moreover, the TGI in experiment [1] was more than 100 µM; in experiment [2] it was more than 100 µM; in experiment [3], 42.6 µM; in experiment [4], more than 100 µM; in experiment [5], more than 100 µM; in experiment [6] it was more than 100 µM. Also, the TGI in experiment [7], in experiment [8], in experiment [9] and in experiment [10] was more than 100 µM throughout.
`C=C1C(=O)O[C@H]2[C@H]1CC/C(Cn1cc(-c3cc(C(F)(F)F)cc(C(F)(F)F)c3)nn1)=C\CC[C@@]1(C)O[C@@H]21`: the GI50 was 0.702 µM in experiment [1]; 0.382 µM in experiment [2]; 0.437 µM in experiment [3]; 0.152 µM in experiment [4]; 0.122 µM in experiment [5]; 1.5 µM in experiment [6]. Also, the GI50 in [7] was 0.169 µM; in experiment [8], 0.19 µM; in [9], 0.191 µM; in experiment [10], 0.141 µM. For the same compound, the TGI stood at 2.38 µM in experiment [1]; 1.58 µM in experiment [2]; 1.71 µM in experiment [3]; 0.358 µM in experiment [4]; 0.27 µM in [5]; 2.95 µM in [6]. The TGI came to 0.821 µM in experiment [7], 0.399 µM in [8], 0.454 µM in [9] and 0.364 µM in experiment [10].
`COc1ccc2c(=O)c3ccoc3n(CC=C(C)C)c2c1`: the TGI in experiment [1] is more than 100 µM; in experiment [2] it was more than 100 µM; in [3] it was more than 100 µM; in [4], more than 100 µM; in experiment [5], more than 33.2 µM; in [6], more than 100 µM. Also, the TGI in experiment [7], in experiment [8], in experiment [9] and in experiment [10] was more than 100 µM each time.
For the compound `O=C(CC1(O)C(=O)Nc2c(Cl)ccc(Cl)c21)c1ccc2ccccc2c1` (stereo not given), the TGI in experiment [1] amounted to 31.3 µM; in [2] it was 34.9 µM; in experiment [3] it was 34.7 µM; in experiment [4], 14.3 µM; in [5], 9.24 µM; in experiment [6], 31 µM. The TGI in experiment [7] was more than 100 µM; in [8] it was 12.5 µM; in experiment [9], 27 µM; in experiment [10], 28.7 µM.
As for `BrC1=CC=C2NC=CC3=CC=NC1C32` (stereo not given), the TGI in experiment [1] was more than 100 µM; in [2], 51.3 µM; in [3] it was 85.4 µM; in experiment [4], 80.6 µM; in experiment [5] it was 27.3 µM; in experiment [6], more than 96.3 µM. For the same compound, the TGI in experiment [7] is 28.6 µM; in experiment [8] it was more than 60.6 µM; in experiment [9], more than 100 µM; in [10] it was 58.5 µM.
For `Cc1c(-c2c(-c3ccc(F)o3)sc3ncnc(O[C@H](Cc4ccccc4OCc4ccnn4CC(F)(F)F)C(=O)O)c23)ccc(OCCN2CCN(C)CC2)c1Cl`, the GI50 in experiment [1] is 4.05 µM; in experiment [2], 6.25 µM; in experiment [3], 3.03 µM; in [4] it was 3.82 µM; in [5] it was 0.148 µM; in [6], 4.12 µM. For the same compound, the GI50 is 0.318 µM in [7], 5.88 µM in [8], 6.49 µM in experiment [9] and 4.29 µM in experiment [10]. Moreover, the TGI in experiment [1] amounted to 9.62 µM; in experiment [2] it was 18.6 µM; in experiment [3], 9.6 µM; in experiment [4] it was 7.67 µM; in [5] it was 4.58 µM; in experiment [6] it was 14.2 µM. The TGI was 9.49 µM in experiment [7], 17.2 µM in [8], 20.1 µM in experiment [9] and 9.26 µM in experiment [10].
`O=C1C(Cl)=C(Nc2cccc(Cl)c2)C(=O)N1Cc1ccccc1Cl`: the GI50 in experiment [1] is 2.32 µM; in experiment [2] it was 1.47 µM; in experiment [3], 11.8 µM; in experiment [4], 2.14 µM; in [5], 2.87 µM; in experiment [6], 20.2 µM. Also, the GI50 in [7] is 0.457 µM; in experiment [8] it was 2.82 µM; in experiment [9] it was 3.96 µM. Besides, the TGI in experiment [1] came out at 8 µM; in experiment [2], 5.01 µM; in experiment [3], 24.8 µM; in [4], 16.1 µM; in experiment [5] it was 23.3 µM; in experiment [6] it was 50.9 µM. In addition, the TGI in [7] is more than 100 µM; in experiment [8], 18.6 µM; in [9] it was 38.2 µM.
As to `CCC1(c2c(F)c(F)c(N)c(F)c2F)CCC(=O)NC1=O` (stereo not given), the TGI in experiment [2], in experiment [3], in experiment [4], in experiment [5], in experiment [6] and in [7] was more than 100 µM in each case. In addition, the TGI in [8], in experiment [9] and in experiment [10] was more than 100 µM throughout.
